Source: ChEMBL document CHEMBL1201862, “PubChem BioAssay data set” (2004)
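Interpolation was linear, between the two tested concentrations surrounding the appropriate level; five concentrations were tested over 48 hours in 96-well plates. GI50 = concentration required for 50% inhibition of growth.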 Calls of active or inactive are those of the source. No stated cut-off is given here; in the data, active = GI50 up to about 1.1 µM and inactive = higher.

Assays:
Assay in all cases: NCI anticancer screen, dose series, 48 h
786-0 = system: 786-0
A498 = system: A498
A549 = system: A549
ACHN = system: ACHN
BT-549 = system: BT-549
CAKI-1 = system: CAKI-1
CCRF-CEM = system: CCRF-CEM
COLO 205 = system: COLO 205
DLD-1 = system: DLD-1
DMS-114 = system: DMS-114
DMS-273 = system: DMS-273
DU-145 = system: DU-145
EKVX = system: EKVX
HCC 2998 = system: HCC 2998
HCT-116 = system: HCT-116
HCT-15 = system: HCT-15
HL-60 = system: HL-60
HOP-18 = system: HOP-18
HOP-62 = system: HOP-62
HOP-92 = system: HOP-92
HT-29 = system: HT-29
Hs-578T = system: Hs-578T
IGROV-1 = system: IGROV-1
K562 = system: K562
KM-20L2 = system: KM-20L2
KM12 = system: KM12
LOX IMVI = system: LOX IMVI
M14 = system: M14
M19-MEL = system: M19-MEL
MCF7 = system: MCF7
MDA-MB-231 = system: MDA-MB-231
MDA-MB-435 = system: MDA-MB-435
MDA-N = system: MDA-N
MOLT-4 = system: MOLT-4
Malme-3M = system: Malme-3M
NCI-H226 = system: NCI-H226
NCI-H23 = system: NCI-H23
NCI-H460 = system: NCI-H460
NCI-H522 = system: NCI-H522
NCI/ADR-RES = system: NCI/ADR-RES
OVCAR-3 = system: OVCAR-3
OVCAR-4 = system: OVCAR-4
OVCAR-5 = system: OVCAR-5
OVCAR-8 = system: OVCAR-8
PC-3 = system: PC-3
RPMI-8226 = system: RPMI-8226
RXF 393 = system: RXF 393
SF-268 = system: SF-268
SF-295 = system: SF-295
SF-539 = system: SF-539
SK-MEL-28 = system: SK-MEL-28
SK-MEL-2 = system: SK-MEL-2
SK-MEL-5 = system: SK-MEL-5
SK-OV-3 = system: SK-OV-3
SN12C = system: SN12C
SNB-19 = system: SNB-19
SNB-75 = system: SNB-75
SNB-78 = system: SNB-78
SR = system: SR
SW-620 = system: SW-620
T47D = system: T47D
TK-10 = system: TK-10
U-251 = system: U-251
UACC-257 = system: UACC-257
UACC-62 = system: UACC-62
UO-31 = system: UO-31
XF498 = system: XF498

With `COc1cccc2c1C(=O)c1c(O)c3c(c(O)c1C2=O)C[C@@](O)(/C(C)=N/NC(=O)c1ccccc1)C[C@@H]3OC1CC(N)C(O)C(C)O1` (some centres undefined) the GI50 (786-0) was 56.2 nM (active), the GI50 (A498) was 510 nM (active) and the GI50 (A549) was 206 nM (active). The GI50 (ACHN) was 80.2 nM (active), the GI50 (BT-549) was 304 nM (active) and the GI50 (CAKI-1) was 141 nM (active). The GI50 (CCRF-CEM) was 59.2 nM (active), the GI50 (COLO 205) was 474 nM (active) and the GI50 (DLD-1) was 1690 nM (inactive). The GI50 (DMS-114) was 202 nM (active), the GI50 (DMS-273) was 157 nM (active) and the GI50 (DU-145) was 135 nM (active). For the same compound, the GI50 (EKVX) was 693 nM (active), the GI50 (HCC 2998) was 481 nM (active) and the GI50 (HCT-116) was 190 nM (active). For the same compound, the GI50 (HCT-15) was 1840 nM, the GI50 (HL-60) was 60.4 nM (active) and the GI50 (HOP-18) was 454 nM (active). The GI50 (HOP-62) was 122 nM (active), the GI50 (HOP-92) was 114 nM (active) and the GI50 (HT-29) was 589 nM (active). The GI50 (Hs-578T) was 256 nM (active), the GI50 (IGROV-1) was 262 nM (active) and the GI50 (K562) was 233 nM (active). For the same compound, the GI50 (KM-20L2) was 807 nM (active), the GI50 (KM12) was 392 nM (active) and the GI50 (LOX IMVI) was 93.5 nM (active). For the same compound, the GI50 (M14) was 203 nM (active), the GI50 (M19-MEL) was 302 nM (active) and the GI50 (MCF7) was 46.7 nM (active). For the same compound, the GI50 (MDA-MB-231) was 490 nM (active), the GI50 (MDA-MB-435) was 362 nM (active) and the GI50 (MDA-N) was 308 nM (active). For the same compound, the GI50 (MOLT-4) was 32.4 nM (active), the GI50 (Malme-3M) was 213 nM (active) and the GI50 (NCI-H226) was 104 nM (active). The GI50 (NCI-H23) was 201 nM (active), the GI50 (NCI-H460) was 35.5 nM (active) and the GI50 (NCI-H522) was 190 nM (active). The GI50 (NCI/ADR-RES) was 16300 nM (inactive), the GI50 (OVCAR-3) was 624 nM (active) and the GI50 (OVCAR-4) was 1170 nM (inactive). The GI50 (OVCAR-5) was 643 nM (active), the GI50 (OVCAR-8) was 283 nM (active) and the GI50 (PC-3) was 171 nM (active). For the same compound, the GI50 (RPMI-8226) was 137 nM (active), the GI50 (RXF 393) was 330 nM (active) and the GI50 (SF-268) was 290 nM (active). The GI50 (SF-295) was 195 nM (active), the GI50 (SF-539) was 261 nM (active) and the GI50 (SK-MEL-28) was 973 nM (active). The GI50 (SK-MEL-2) was 505 nM (active), the GI50 (SK-MEL-5) was 161 nM (active) and the GI50 (SK-OV-3) was 583 nM (active). The GI50 (SN12C) was 155 nM (active), the GI50 (SNB-19) was 179 nM (active) and the GI50 (SNB-75) was 373 nM (active). For the same compound, the GI50 (SNB-78) was 658 nM (active), the GI50 (SR) was 19.9 nM (active) and the GI50 (SW-620) was 136 nM (active). For the same compound, the GI50 (T47D) was 159 nM (active), the GI50 (TK-10) was 530 nM (active) and the GI50 (U-251) was 147 nM (active). The GI50 (UACC-257) was 594 nM (active), the GI50 (UACC-62) was 242 nM (active) and the GI50 (UO-31) was 1770 nM (inactive). For the same compound, the GI50 (XF498) was 80.3 nM (active).
`[N-]=[N+]=CC(=O)c1ccccc1C#CCCc1ccccc1` was tested, and the GI50 (A498) was 28400 nM (inactive), the GI50 (A549) was 27200 nM (inactive) and the GI50 (ACHN) was 22600 nM (inactive). For the same compound, the GI50 (CCRF-CEM) was 10900 nM (inactive), the GI50 (COLO 205) was 32000 nM (inactive) and the GI50 (DLD-1) was 39400 nM (inactive). The GI50 (DMS-114) was 5830 nM (inactive), the GI50 (DMS-273) was 23200 nM (inactive) and the GI50 (EKVX) was 24500 nM (inactive). For the same compound, the GI50 (HCC 2998) was 31800 nM (inactive), the GI50 (HCT-116) was 16600 nM (inactive) and the GI50 (HCT-15) was 26100 nM. The GI50 (HL-60) was 8050 nM (inactive), the GI50 (HOP-18) was 40300 nM (inactive) and the GI50 (HOP-62) was 31600 nM (inactive). The GI50 (HOP-92) was 18900 nM (inactive), the GI50 (HT-29) was 16600 nM (inactive) and the GI50 (IGROV-1) was 36900 nM (inactive). For the same compound, the GI50 (K562) was 27500 nM (inactive), the GI50 (KM-20L2) was 23600 nM (inactive) and the GI50 (KM12) was 41200 nM (inactive). For the same compound, the GI50 (LOX IMVI) was 30100 nM (inactive), the GI50 (M14) was 38800 nM (inactive) and the GI50 (MOLT-4) was 12100 nM (inactive). The GI50 (Malme-3M) was 27400 nM (inactive), the GI50 (NCI-H226) was 29400 nM (inactive) and the GI50 (NCI-H23) was 21500 nM (inactive). For the same compound, the GI50 (NCI-H460) was 23200 nM (inactive), the GI50 (NCI-H522) was 1050 nM (active) and the GI50 (OVCAR-3) was 20200 nM (inactive). For the same compound, the GI50 (OVCAR-4) was 44200 nM (inactive), the GI50 (OVCAR-5) was 50500 nM (inactive) and the GI50 (OVCAR-8) was 27800 nM (inactive). The GI50 (RPMI-8226) was 14000 nM (inactive), the GI50 (RXF 393) was 30000 nM (inactive) and the GI50 (SF-295) was 40400 nM (inactive). The GI50 (SF-539) was 36600 nM (inactive), the GI50 (SK-MEL-28) was 48200 nM (inactive) and the GI50 (SK-MEL-2) was 27200 nM (inactive). The GI50 (SK-MEL-5) was 15700 nM (inactive), the GI50 (SK-OV-3) was 15100 nM (inactive) and the GI50 (SN12C) was 35500 nM (inactive). The GI50 (SNB-19) was 38300 nM (inactive), the GI50 (SNB-75) was 15600 nM (inactive) and the GI50 (SR) was 28200 nM (inactive). For the same compound, the GI50 (SW-620) was 32700 nM (inactive), the GI50 (TK-10) was 72800 nM (inactive) and the GI50 (U-251) was 10200 nM (inactive). The GI50 (UACC-257) was 23900 nM (inactive), the GI50 (UACC-62) was 18600 nM (inactive) and the GI50 (UO-31) was 22700 nM (inactive). For the same compound, the GI50 (XF498) was 12100 nM (inactive).
